Measured values: patent US20070225256A1, “COMPOUND” (priority 2004, published 2007)
Where two headings read alike, the source gives them in different places.

Key:
MCF-7 = assay: Inhibition of MCF-7 cell proliferation; assay type: cell-based; details: for IC50: read-out: Concentration for 50% inhibition of MCF-7 proliferation
Protocol: MCF-7 breast cancer cells are seeded into multi-well culture plates at a density of 10^5 cells/well. Cells were allowed to attach and grown until about 30% confluent when they are treated as follows:
Cells are grown for 6 days in growth medium containing the COI with changes of medium/COI every 3 days. At the end of this period cell numbers were counted using a Coulter cell counter.
Inhibition of MCF-7 Cell Proliferation

[1] = cited from earlier work
steroid sulphatase = target: T1, steroid sulphatase (Homo sapiens, UniProt P08842); details: compared with EMATE; cited from earlier work
T1 sequence (P08842 22-583): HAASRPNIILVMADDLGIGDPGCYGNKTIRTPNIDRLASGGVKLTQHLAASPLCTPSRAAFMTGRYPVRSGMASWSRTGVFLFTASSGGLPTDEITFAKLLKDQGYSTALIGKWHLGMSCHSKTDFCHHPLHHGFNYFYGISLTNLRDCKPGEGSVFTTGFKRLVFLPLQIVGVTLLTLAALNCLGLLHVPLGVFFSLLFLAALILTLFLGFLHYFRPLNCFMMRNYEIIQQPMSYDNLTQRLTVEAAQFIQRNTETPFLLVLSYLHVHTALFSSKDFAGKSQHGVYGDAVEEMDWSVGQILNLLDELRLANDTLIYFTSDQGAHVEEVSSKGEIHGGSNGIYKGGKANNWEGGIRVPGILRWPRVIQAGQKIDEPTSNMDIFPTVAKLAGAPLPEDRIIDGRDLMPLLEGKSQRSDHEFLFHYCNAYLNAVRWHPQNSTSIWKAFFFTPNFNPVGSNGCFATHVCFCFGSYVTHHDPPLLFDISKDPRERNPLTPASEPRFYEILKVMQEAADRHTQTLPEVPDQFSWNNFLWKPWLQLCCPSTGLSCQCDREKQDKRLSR

E1-STS [2] = target: T2, E1-STS (Homo sapiens, UniProt P08842); details: compared with EMATE; cited from earlier work
T2 sequence (P08842 22-583): T1 sequence (P08842 22-583)

[3] = cited from earlier work; remark: listed apart in the source
E1-STS [4] = target: T2, E1-STS; set-up: endogenous in cells; host or cells: MCF-7; details: 0.1 nM; cited from earlier work

## COc1cc2c(cc1OS(N)(=O)=O)CC[C@@H]1[C@@H]2CC[C@]2(C)[C@@H](OC(N)=O)CC[C@@H]12 [Compound 58, 2-Methoxy-3-O-sulfamoyl estradiol-17-carbamate]
MCF-7
  IC50: 1.8 µM

## COc1cc2c(cc1OS(N)(=O)=O)CC[C@@H]1[C@@H]2CC[C@]2(C)C(=O)CC[C@@H]12 [2-methoxyoestrone-3-O-sulphamate]
[1]; rat, in vivo
  oestrogenicity: devoid of oestrogenicity
Steroid sulphatase
  potency as a steroid sulphatase inhibitor: equipotent with EMATE

## COc1cc2c(cc1O)CCC1C2CC[C@@]2(C)C1CC[C@@H]2OC(N)=O (some centres unmarked) [Compound 57, 2-Methoxy-estradiol-17-carbamate]
MCF-7; Homo sapiens, MCF7
  IC50: 44 µM

## oestrone-3-N-sulphamate
E1-STS [2]
  E1-STS inactivation: weaker non-time-dependent inactivators

## CCc1cc2c(cc1OS(N)(=O)=O)CC[C@@H]1[C@@H]2CC[C@]2(C)C(CS(C)(=O)=O)CC[C@@H]12 (some centres unmarked) [Compound 8, 2-Ethyl-3-O-sulfamoyl-17-methanesulfonylmethyl estrone]
MCF-7
  % Inhibition of MCF-7 proliferation at 10 μM: 79%

## CCc1cc2c(cc1OS(N)(=O)=O)CC[C@@H]1[C@@H]2CC[C@]2(C)[C@@H](CC(C)=O)CC[C@@H]12 [Compound 29, 2-Ethyl-3-O-sulfamoyl-17β-(2-oxopropyl) estrone]
MCF-7
  % Inhibition of MCF-7 proliferation at 10 μM: 69%

## C[C@]12CC[C@@H]3c4ccc(OS(=O)(=O)O)cc4CC[C@H]3[C@@H]1CCC2=O [Compound E1S, oestrone sulphate]
[3]
  half-life in blood: 10 to 12 h

## CCc1cc2c(cc1OS(N)(=O)=O)CC[C@@H]1[C@@H]2CC[C@]2(C)[C@@H](CCF)CC[C@@H]12 [Compound 14, 2-Ethyl-3-O-sulfamoyl-17β-(2-fluoro-ethyl)-17-deoxy estrone]
MCF-7
  % Inhibition of MCF-7 proliferation at 10 μM: 89%

## CCc1cc2c(cc1OS(N)(=O)=O)CC[C@@H]1[C@@H]2CC[C@]2(C)[C@@H](C[N+](=O)[O-])CC[C@@H]12 [Compound 23, 2-Ethyl-3-O-sulfamoyl-17β-nitromethyl-17-deoxy estrone]
MCF-7
  % Inhibition of MCF-7 proliferation at 10 μM: <50%

## oestrone-3-S-sulphamate
E1-STS [2]
  E1-STS inactivation: weaker non-time-dependent inactivators

## CCc1cc2c(cc1OS(N)(=O)=O)CC[C@@H]1[C@@H]2CC[C@]2(C)[C@@H](CC)CC[C@@H]12 [Compound 11, 2-Ethyl-3-O-sulfamoyl-17-β-ethyl-17-deoxy estrone]
MCF-7
  % Inhibition of MCF-7 proliferation at 10 μM: 83%

## CC12CCC3c4ccc(OS(N)(=O)=O)cc4CCC3C1CCC2=O (centres unmarked) [EMATE, oestrone-3-sulphamate]
[1]; rats, oral
  oral uterotrophic activity relative to estradiol: 100 times
E1-STS [4]
  inhibition of E1-STS activity in intact MCF-7 cells: more than 99%
